Legend:
[1] = test system: RGC-5 (rat ganglion cell); assay: Retinal nerve protection under oxygen-glucose deprivation (OGD), LDH assay; assay type: cell-based; settings: RGC-5, OGD 15 hours, compound 20 μM, DMSO control = 100%
Method: The following experiment was performed to evaluate the protective effect of the compounds of examples of the invention on the retinal nerve under oxygen-glucose deprivation condition.
The retinal ganglion cell line RGC-5 (rat ganglion cell) was cultured in DMEM (Dulbecco's modified Eagle's medium) supplemented with 10% FBS (fetal bovine serum) and 1% penicillin/streptomycin. The cells were distributed in a 96-well plate at the density of 8×10^3 cells/well, followed by culture in a 37° C., CO2 incubator for 12 hours. The cells were washed with PBS once and the medium was replaced with glucose free DMEM. The cells were treated with either DMSO (0.1%) alone (control) or with the compounds of examples (20 μM) shown in Table 3, followed by culture in an anaerobic incubator (10% H2, 5% CO2, 85% N2, 37° C., chamber (ThermoForma, USA)) for 15 hours to induce cell death.
The level of cell death was measured by LDH (lactate dehydrogenase, Roche) assay. The LDH assay is a method for measuring the activity of LDH released from the damaged cells into the culture medium. NAD^+ was reduced to NADH and H^+ by LDH, and the bond of tetrazolium salt INT ring was cleaved by diaphorase to form formazan. Absorbance of the formazan was measured at 490 nm by using Victor 3 (PerkinElmer). The absorbance reflects the amount of dead cells.
The level of the control LDH under oxygen-glucose deprivation condition was regarded as 100%, and the level of LDH in the cell group cultured in normal medium (10% FBS, DMEM) for the same time was regarded as 0%. Based on that, the levels of LDH of the cell groups treated with the compounds of the invention under oxygen-glucose deprivation condition were converted into the relative ratio of cell death. The compounds of examples of the invention were treated to wells, each compound for three wells, and then each experiment was performed in triplicate.

[2] = molecular target: T1, RIPK1 (receptor-interacting serine/threonine-protein kinase 1) (Homo sapiens (Human), UniProt Q13546); assay: RIPK1 inhibitory activity, autophosphorylation of immuno-precipitated RIPK1 with [32P]γ-ATP; assay type: biochemical; settings: for activity at 100 µM: compound 100 μM, remaining RIPK1 phosphorylation; for inhibition at 100 µM: Table 2, 100 μM
Method: The following experiment was performed to evaluate RIPK1 (receptor-interacting serine/threonine-protein kinase 1) inhibitory activity of the compounds of examples of the invention.
(§1) RIPK1 enzyme immuno-precipitated in HEK293 (Human Embryonic Kidney 293) cell lysate was used as kinase. The experiment was performed according to the method described in Cell. 12; 137(6):1112-23(2009). RIPK1 protein was over-expressed in HEK293 cell line, to which lysis buffer (50 mM Tris-Cl [pH 8.0], 150 mM NaCl, 1 mM EDTA, 1% NP-40, 0.4 mM phenylmethylsulfonyl fluoride (PMSF)) was added for cell lysis. Centrifugation was performed at 13,000 rpm for 10 minutes to separate the supernatant. RIPK1 monoclonal antibody (610459, BD Bioscience) and A/G agarose beads (sc-2003, Santa Cruz Biotechnology) were added thereto, followed by immuno-precipitation in a 4° C. rotator for 12 hours.
The immune complex was washed with lysis buffer twice and then washed with kinase assay buffer (20 mM HEPES [pH7.6], 2 mM DTT, 1 mM NaF, 1 mM Na3Vo4, 20 mM β-glycerophosphate, 20 mM PNPP, 20 mM MgCl2, 20 mM MnCl2, 1 mM Benzamidie, and 1 mM EDTA) lastly. Kinase assay buffer and the compound were added to the RIPK1 immuno-precipitate, followed by reaction in a 24° C. constant-temperature water bath for 15 minutes. Additional reaction was induced for 30 minutes at 30° C. after 100 μM of ATP and 10 μCi[^32P] γ-ATP were added thereto. The reaction mixture was washed with kinase assay buffer once, to which protein loading buffer was added, followed by heating at 100° C. for 3 minutes. The reaction mixture was then loaded on 8% SDS-PAGE gel. Radioactive image of the phosphorylated RIPK1 was detected with FLA-7000 (GE healthcare). The image Quant TL program was used for the quantification.

[3] = molecular target: T1, RIPK1 (receptor-interacting serine/threonine-protein kinase 1); assay: IC50 to RIPK1, immuno-precipitated enzyme with [32P]γ-ATP; assay type: biochemical; settings: 10-0.05 μM, 100 μM ATP
Method: RIPK1 enzyme immuno-precipitated in HEK293 (Human Embryonic Kidney 293) cell lysate was used as a kinase. The experiment was performed according to the method described in Cell. 12; 137(6):1112-23(2009).
as §1, with “RIPK1” for “RIPK1 enzyme immuno-precipitated in HEK293 (Human Embryonic Kidney 293) cell lysate was used as kinase. The experiment was performed according to the method described in Cell. 12; 137(6):1112-23(2009). RIPK1”
The compounds of examples of the invention were diluted at the different concentrations of 10 μM˜0.05 μM (10, 5, 1, 0.5, 0.1, 0.05 uM) and mixed with the immuno-precipitated RIPK1 enzyme, followed by reaction in a 24° C. constant-temperature water bath for 15 minutes. Additional reaction was induced for 30 minutes at 30° C. after 100 μM of ATP and 10 μCi[^32P] γ-ATP were added thereto. The reaction mixture was washed with buffer once, to which protein loading buffer was added, followed by heating at 100° C. for 3 minutes. The reaction mixture was then loaded on 8% SDS-PAGE gel. Radioactive image of the phosphorylated RIPK1 was detected with FLA-7000 (GE healthcare). The image Quant TL program was used for the quantification. Based on the results, IC50 of the compound was calculated by using sigmaplot 10.0 program.

[4] = test system: RGC-5 (rat ganglion cell-5); assay: Retinal neuron protection under necroptosis inducing (TCZ; TNFα+cycloheximide+zVAD) condition, LDH assay; assay type: cell-based; settings: RGC-5, TCZ 15 hours, compound 20 μM, DMSO control = 100%
Method: The following experiment was performed to evaluate the retinal neuron protection effect of the compounds of the invention under necroptosis inducing condition.
The retinal ganglion cell line RGC-5 (rat ganglion cell-5) was cultured in DMEM (Dulbecco's modified Eagle's medium) supplemented with 10% FBS (fetal bovine serum) and 1% penicillin/streptomycin. The cells were distributed in a 96-well plate at the density of 8×10^3 cells/well, followed by culture in a 37° C., CO2 incubator for 12 hours. The medium supplemented with TNFα (10 ng/ml), cycloheximide (10 μg/ml), and zVAD (10 μM) (TCZ) was treated with DMSO (0.1%) alone (control) or with the compounds of the invention (20 μM), followed by additional culture in a 37° C., CO2 incubator for 15 hours to induce cell death.
The level of cell death was measured by LDH (lactate dehydrogenase, Roche) assay. The level of the control LDH under TCZ condition was regarded as 100%, and the level of LDH in the cell group cultured in normal medium (10% FBS, DMEM) for the same time was used for the measurement of the relative rate of cell death. The compounds of examples of the invention were treated to wells, each compound for three wells, and then each experiment was performed in triplicate.

T1 sequence (Q13546 whole entry, species assumed): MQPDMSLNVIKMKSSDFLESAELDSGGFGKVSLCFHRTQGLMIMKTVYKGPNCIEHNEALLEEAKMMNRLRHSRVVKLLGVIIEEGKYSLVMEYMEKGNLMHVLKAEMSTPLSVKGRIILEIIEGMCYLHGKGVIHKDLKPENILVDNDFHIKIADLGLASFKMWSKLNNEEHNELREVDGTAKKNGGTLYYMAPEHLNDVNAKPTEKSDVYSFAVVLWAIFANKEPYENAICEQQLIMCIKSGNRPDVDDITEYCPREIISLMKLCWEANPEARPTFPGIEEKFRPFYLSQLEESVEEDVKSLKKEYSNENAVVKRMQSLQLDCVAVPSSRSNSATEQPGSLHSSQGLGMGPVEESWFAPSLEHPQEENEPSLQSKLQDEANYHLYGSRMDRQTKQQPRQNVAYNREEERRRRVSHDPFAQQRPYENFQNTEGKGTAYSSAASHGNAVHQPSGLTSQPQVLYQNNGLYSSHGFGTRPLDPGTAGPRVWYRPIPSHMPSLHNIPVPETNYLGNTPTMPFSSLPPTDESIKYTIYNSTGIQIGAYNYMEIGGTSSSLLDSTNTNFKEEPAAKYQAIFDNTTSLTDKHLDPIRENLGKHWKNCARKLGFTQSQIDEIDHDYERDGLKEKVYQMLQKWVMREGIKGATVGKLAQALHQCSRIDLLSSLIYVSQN

Structure (SMILES)	activity at 100 µM [2] [%]	IC50 [3] [nM]	inhibition at 100 µM [2] [%]	Death of retinal nerve cell (%) [1] [%]	Death of retinal nerve cell (%) [4] [%]
O=C(c1cc2c(-c3ccc(F)cc3)ccnc2s1)N1CCOCC1 [Example 4, (4-(4-fluorophenyl)thieno[2,3-b]pyridine-2-yl)(morpholino)methanone]	3 ± 1.4	1120	–	57.8 ± 8.9	–
Cc1ccc2cc(C(=O)N3CCOCC3)sc2c1C [Example 18, (6,7-dimethylbenzo[b]thiophene-2-yl)(morpholino)methanone]	76.5 ± 12	–	–	37.0 ± 1.7	74.6 ± 8.2
COc1ccc2[nH]c(C(=O)N3CCOCC3)nc2c1 [Example 24, (5-methoxy-1H-benzo[d]imidazole-2-yl)(morpholino)methanone]	52 ± 17.1	–	–	76.4 ± 13.4	66.6 ± 9.9
O=C(c1cc2c(-c3ccccc3F)cccc2s1)N1CCOCC1 [Example 30, (4-(2-fluorophenyl)benzo[b]thiophene-2-yl)(morpholino)methanone]	0.4 ± 0.1	102	–	51.0 ± 5.9	–
O=C(c1cc2c(-c3cccc(F)c3)cccc2s1)N1CCOCC1 [Example 36, (4-(3-fluorophenyl)benzo[b]thiophene-2-yl)(morpholino)methanone]	4 ± 2.8	17.7	–	58.0 ± 3.8	–
Cl.O=C(c1cc2c(-c3ccc(F)cc3)cccc2s1)N1CCNCC1 [Example 38, (4-(4-fluorophenyl)benzo[b]thiophene-2-yl)(piperazine-1-yl)methanone hydrochloride]	62 ± 12	–	–	59.9 ± 0.2	72.4 ± 7.5
O=C(c1cc2c(-c3ccc(F)cc3)cccc2s1)N1CCCCC1 [Example 47, (4-(4-fluorophenyl)benzo[b]thiophene-2-yl) (piperidine-1-yl)methanone]	20 ± 14.1	–	–	59.1 ± 1.6	89.1 ± 1.2
O=C(c1cc2c(-c3ccc(F)cc3)cccc2s1)N1CCSCC1 [Example 51, (4-(4-fluorophenyl)benzo[b]thiophene-2-yl)(thiomorpholino)methanone]	2.5 ± 0.7	217	–	44.7 ± 6.3	–
O=C(c1cc2cccc(-c3ccc(F)cc3)c2s1)N1CCOCC1 [Example 65, (7-(4-fluorophenyl)benzo[b]thiophene-2-yl)(morpholino)methanone]	67	–	–	79.6 ± 5.5	77.8 ± 9.6
O=C(c1cc2c(-c3ccsc3)cccc2s1)N1CCOCC1 [Example 76, morpholino(4-(thiophene-3-yl)benzo[b]thiophene-2-yl)methanone]	1.5 ± 0.7	61.2	–	–	–

Continued, in another order:

activity at 100 µM [2] [%]	IC50 [3] [nM]	inhibition at 100 µM [2] [%]	Structure (SMILES)	Death of retinal nerve cell (%) [1] [%]	Death of retinal nerve cell (%) [4] [%]
81 ± 26.9	–	–	COc1ccc2cc(C(=O)N3CCOCC3)sc2c1 [Example 19, (6-methoxybenzo[b]thiophene-2-yl)(morpholino)methanone]	70.9 ± 9.7	71.6 ± 9.1
81 ± 17	–	–	Cc1ccc2[nH]c(C(=O)N3CCOCC3)cc2c1 [Example 21, (5-methyl-1H-indole-2-yl)(morpholino)methanone]	64.7 ± 7.1	89.9 ± 19.4
43.5 ± 10.6	–	≥ 50	COc1ccc2[nH]c(C(=O)N3CCOCC3)cc2c1 [Example 22, (5-methoxy-1H-indole-2-yl)(morpholino)methanone]	78.6 ± 13.8	69.5 ± 7.4
69 ± 24.5	–	–	O=C(c1nc2ccccc2[nH]1)N1CCOCC1 [Example 23, (1H-benzo[d]imidazole-2-yl)(morpholino)methanone]	45.6 ± 3.6	69.2 ± 4.2
43	–	≥ 50	Cn1c(C(=O)N2CCOCC2)cc2ccccc21 [Example 25, (1-methyl-1H-indole-2-yl)(morpholino)methanone]	37.0 ± 1.2	64.8 ± 11.2
81.4 ± 29.3	–	–	COc1ccc2oc(C(=O)N3CCOCC3)cc2c1 [Example 26, (5-methoxybenzofuran-2-yl)(morpholino)methanone]	48.6 ± 6.5	75.9 ± 15.1
86 ± 17	–	–	Cc1ccc2cc(C(=O)N3CCOCC3)oc2c1 [Example 27, (6-methylbenzofuran-2-yl)(morpholino)methanone]	53.7 ± 9.1	86.1 ± 1.3
73 ± 38.2	–	–	Nc1ccc2sc(C(=O)N3CCOCC3)cc2c1 [Example 28, (5-aminobenzo[b]thiophene-2-yl)(morpholino)methanone]	60.0 ± 8.2	84.3 ± 1.7
82.5 ± 24.7	–	–	O=C(c1cc2cccc(Br)c2s1)N1CCOCC1 [Example 29, (7-bromobenzo[b]thiophene-2-yl)(morpholino)methanone]	51.4 ± 10.9	78.4 ± 6.5
